The text below walks through data of ChEMBL document CHEMBL5724696, “Autophagy assay results for EUbOPEN Chemogenomics Library” (2024).

Experiment [1] relates to U2OS. The experiment is described as follows: (§1) Here: values are normalized to the negative (DMSO; defined as 0% autophagy induction) and positive (250nM Torin1; mTOR inhibitor; defined as maximal inducer of autophagy = 100%) control compounds and represented as % of autophagy induction. […] The impact of autophagy induction on cells is complex and depends on the affected target. As such, the magnitude of a phenotype may not be equally mirrored in the %-value of autophagy induction and vice versa. The dynamics of the induction may indicate the mode of activation: e.g. activation via phosphorylation or a signaling cascade may occur fast, while activation via transcription factors may take considerably longer. […] Of note, treatment concentrations may be sub-optimal for specific compounds, leading to false negative annotations. In kind it is functional, Homo sapiens. The note with it: Culturing Media DMEM, 1 % Penicillin/Streptomycin, 10% Fetal bovin serum Add-On: No, Screening Media Control DMEM, Screening Media Samples DMEM.

Experiment [2] has as its system U2OS. The experiment is described as §1. The following applies: Culturing Media DMEM, 1 % Penicillin/Streptomycin, 10% Fetal bovin serum Add-On: No, Screening Media Control DMEM, Screening Media Samples DMEM. In kind it is functional, Homo sapiens. The source holds these as a separate data set.
Where [3] appears, read: Compound Concentration 0.5 uM, Timepoint 12 hours.
The mark [4] stands for this setting: Compound Concentration 0.5 uM, Timepoint 24 hours.
[5] abbreviates: Compound Concentration 0.5 uM, Timepoint 36 hours.
The mark [6] stands for this setting: Compound Concentration 0.5 uM, Timepoint 60 hours.
[7] abbreviates: Compound Concentration 2 uM, Timepoint 12 hours.
Where [8] appears, read: Compound Concentration 2 uM, Timepoint 24 hours.
The mark [9] stands for this setting: Compound Concentration 2 uM, Timepoint 36 hours.
Where [10] appears, read: Compound Concentration 2 uM, Timepoint 60 hours.
[11] abbreviates: Compound Concentration 10 uM, Timepoint 12 hours.
Where [12] appears, read: Compound Concentration 10 uM, Timepoint 24 hours.
Where [13] appears, read: Compound Concentration 10 uM, Timepoint 36 hours.
[14] abbreviates: Compound Concentration 10 uM, Timepoint 60 hours.

`N#Cc1ccc(NC(=O)Nc2ccccc2Br)c2nn[nH]c12`: the autophagy induction was -0.5776% with U2OS [1] (setting [3]); -3.216% in the experiment with U2OS [1] (setting [4]); -2.984% in the experiment with U2OS [1] (setting [5]); 114.391% in the experiment on U2OS [1] (setting [6]); 0.1454% in the experiment on U2OS [1] (setting [7]); -3.5634% in the experiment with U2OS [1] (setting [8]). The autophagy induction with U2OS [1] (setting [9]) was -1.494%; in the experiment with U2OS [1] (setting [10]), 114.288%; in the experiment on U2OS [1] (setting [11]) it was -0.261%; in the experiment on U2OS [1] (setting [12]), -3.379%; in the experiment with U2OS [1] (setting [13]), -2.529%; in the experiment on U2OS [1] (setting [14]), 114.424%. In addition, the autophagy induction with U2OS [2] (setting [3]) is 5.86%; in the experiment on U2OS [2] (setting [4]), 3.694%; with U2OS [2] (setting [5]), 2.244%; in the experiment on U2OS [2] (setting [6]), 1.525%; in the experiment on U2OS [2] (setting [7]), -10.6319%; with U2OS [2] (setting [8]), -11.2857%. Also, the autophagy induction is given as -14.4856% with U2OS [2] (setting [9]); -10.0033% with U2OS [2] (setting [10]); -0.1618% with U2OS [2] (setting [11]); -2.733% in the experiment on U2OS [2] (setting [12]); -3.711% in the experiment with U2OS [2] (setting [13]); -9.797% in the experiment with U2OS [2] (setting [14]).
Take `COc1ccc(Br)cc1S(=O)(=O)NC(=O)/C=C/c1ccccc1Cc1ccc2ccccc2c1`: the autophagy induction in the experiment on U2OS [1] (setting [3]) is 8.106%; in the experiment with U2OS [1] (setting [4]), 0.9964%; with U2OS [1] (setting [5]), -0.06695%; with U2OS [1] (setting [6]), 114.397%; with U2OS [1] (setting [7]), -1.7757%; in the experiment on U2OS [1] (setting [8]), -1.309%. The autophagy induction is recorded as -1.876% with U2OS [1] (setting [9]); 114.114% in the experiment with U2OS [1] (setting [10]); -6.0177% in the experiment with U2OS [1] (setting [11]); -3.111% with U2OS [1] (setting [12]); -1.417% in the experiment on U2OS [1] (setting [13]); 114.143% in the experiment on U2OS [1] (setting [14]). In addition, the autophagy induction in the experiment on U2OS [2] (setting [3]) was 10.8816%; in the experiment on U2OS [2] (setting [4]) it was 4.975%; in the experiment on U2OS [2] (setting [5]) it was 5.043%; in the experiment with U2OS [2] (setting [6]), 1.1971%; in the experiment on U2OS [2] (setting [7]) it was -3.861%; with U2OS [2] (setting [8]), -4.459%. The autophagy induction is -4.477% in the experiment with U2OS [2] (setting [9]); -3.627% in the experiment on U2OS [2] (setting [10]); 11.1214% with U2OS [2] (setting [11]); -0.228% in the experiment with U2OS [2] (setting [12]); 3.111% with U2OS [2] (setting [13]); -1.844% in the experiment on U2OS [2] (setting [14]).
`CCCCCNC(=O)NS(=O)(=O)c1cc([N+](=O)[O-])ccc1NC1CCCCC1`: the autophagy induction in the experiment on U2OS [1] (setting [3]) is given as -2.4637%; in the experiment with U2OS [1] (setting [4]), -2.287%; in the experiment on U2OS [1] (setting [5]), -1.179%; in the experiment on U2OS [1] (setting [6]), 114.19%; in the experiment with U2OS [1] (setting [7]) it was -2.891%; in the experiment with U2OS [1] (setting [8]), -2.398%. In addition, the autophagy induction is -2.2883% with U2OS [1] (setting [9]); 114.254% in the experiment on U2OS [1] (setting [10]); -6.232% in the experiment on U2OS [1] (setting [11]); -4.153% in the experiment with U2OS [1] (setting [12]); -3.872% with U2OS [1] (setting [13]); 114.439% with U2OS [1] (setting [14]). In addition, the autophagy induction in the experiment on U2OS [2] (setting [3]) is on record as 1.311%; in the experiment with U2OS [2] (setting [4]) it was 2.21%; in the experiment with U2OS [2] (setting [5]), -1.399%; with U2OS [2] (setting [6]), -21.9841%; in the experiment on U2OS [2] (setting [7]) it was 12.2747%; with U2OS [2] (setting [8]) it was 3.055%. The autophagy induction with U2OS [2] (setting [9]) is given as 0.8075%; with U2OS [2] (setting [10]), -5.198%; in the experiment on U2OS [2] (setting [11]), 0.1217%; in the experiment with U2OS [2] (setting [12]), -4.73%; in the experiment with U2OS [2] (setting [13]) it was -6.08%; with U2OS [2] (setting [14]), -12.7619%.
Turning to `Cc1csc2c(N[C@@H](C)CN3CCN(S(=O)(=O)c4ccc(Cl)c(Cl)c4)CC3)ncnc12`, the autophagy induction with U2OS [1] (setting [3]) is listed as -0.007707%; in the experiment with U2OS [1] (setting [4]), -1.5%; with U2OS [1] (setting [5]), -0.4844%; in the experiment on U2OS [1] (setting [6]) it was -654.702%; in the experiment on U2OS [1] (setting [7]), 4.101%; in the experiment on U2OS [1] (setting [8]) it was 0.5386%. Moreover, the autophagy induction was -0.3647% in the experiment with U2OS [1] (setting [9]); 114.139% in the experiment with U2OS [1] (setting [10]); -10.3141% with U2OS [1] (setting [11]); -6.4207% in the experiment with U2OS [1] (setting [12]); -4.537% in the experiment on U2OS [1] (setting [13]); 114.595% in the experiment on U2OS [1] (setting [14]). Besides, the autophagy induction is 6.768% in the experiment with U2OS [2] (setting [3]); 8.8628% in the experiment on U2OS [2] (setting [4]); 13.6009% in the experiment with U2OS [2] (setting [5]); 4.711% in the experiment on U2OS [2] (setting [6]); 2.53% with U2OS [2] (setting [7]); 6.7674% in the experiment with U2OS [2] (setting [8]). The autophagy induction in the experiment with U2OS [2] (setting [9]) was 12.0314%; in the experiment on U2OS [2] (setting [10]) it was 11.989%; in the experiment on U2OS [2] (setting [11]), 12.5309%; in the experiment on U2OS [2] (setting [12]) it was 16.4077%; with U2OS [2] (setting [13]), 26.9308%; with U2OS [2] (setting [14]), 28.2658%.
On to `O=C(O)COc1cccc(CN(Cc2ccc(-n3cccn3)cc2)S(=O)(=O)c2cccnc2)c1`, for which the autophagy induction is given as 1.733% in the experiment with U2OS [1] (setting [3]); -2.792% in the experiment with U2OS [1] (setting [4]); -2.001% in the experiment with U2OS [1] (setting [5]); 114.184% in the experiment on U2OS [1] (setting [6]); 12.9626% with U2OS [1] (setting [7]); 0.7228% in the experiment with U2OS [1] (setting [8]). The autophagy induction is recorded as 0.396% in the experiment with U2OS [1] (setting [9]); 114.202% with U2OS [1] (setting [10]); 2.661% with U2OS [1] (setting [11]); -2.358% in the experiment with U2OS [1] (setting [12]); 0.08453% with U2OS [1] (setting [13]); 114.175% in the experiment on U2OS [1] (setting [14]). The autophagy induction in the experiment on U2OS [2] (setting [3]) is 5.874%; in the experiment on U2OS [2] (setting [4]), 2.74%; in the experiment with U2OS [2] (setting [5]) it was 1.495%; in the experiment with U2OS [2] (setting [6]), -1.697%; in the experiment on U2OS [2] (setting [7]), -11.5162%; in the experiment with U2OS [2] (setting [8]) it was -13.8805%. Besides, the autophagy induction is recorded as -8.014% in the experiment on U2OS [2] (setting [9]); -12.1859% in the experiment with U2OS [2] (setting [10]); -5.999% with U2OS [2] (setting [11]); -5.085% in the experiment with U2OS [2] (setting [12]); -8.443% in the experiment with U2OS [2] (setting [13]); 1.395% with U2OS [2] (setting [14]).
As for `CCc1ccc(OCc2ccccc2C(=O)Nc2ccc3nc(C)cc(N)c3c2)cc1.Cl`, the autophagy induction in the experiment with U2OS [1] (setting [3]) is 12.0081%; in the experiment on U2OS [1] (setting [4]) it was 1.625%; in the experiment on U2OS [1] (setting [5]), -0.1664%; with U2OS [1] (setting [6]), 114.695%; in the experiment with U2OS [1] (setting [7]), -46.9081%; with U2OS [1] (setting [8]), -13.0517%. Moreover, the autophagy induction in the experiment on U2OS [1] (setting [9]) stood at 3.022%; in the experiment on U2OS [1] (setting [10]), 113.026%; with U2OS [1] (setting [11]), 98.6173%; with U2OS [1] (setting [12]) it was 63.101%; in the experiment with U2OS [1] (setting [13]), 54.8449%; in the experiment with U2OS [1] (setting [14]) it was 109.07%. Also, the autophagy induction in the experiment on U2OS [2] (setting [3]) is on record as 21.0143%; in the experiment with U2OS [2] (setting [4]) it was 14.8244%; in the experiment with U2OS [2] (setting [5]) it was 13.2935%; in the experiment with U2OS [2] (setting [6]), 10.1945%; with U2OS [2] (setting [7]), 66.4638%; with U2OS [2] (setting [8]), 63.0279%. Further, the autophagy induction is 63.192% with U2OS [2] (setting [9]); 56.3816% in the experiment with U2OS [2] (setting [10]); 203.914% in the experiment on U2OS [2] (setting [11]); 166.946% in the experiment on U2OS [2] (setting [12]); 154.332% in the experiment with U2OS [2] (setting [13]); 150.102% in the experiment with U2OS [2] (setting [14]).
